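48-hour exposure; five concentrations; linearly interpolated endpoints. Definition used: TGI = concentration required for complete inhibition of growth.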
Columns and labels:
Assay in all cases: NCI tumour cell line growth inhibition, 48 h
[1] = test system: 786-0 renal
[2] = test system: A498 renal
[3] = test system: A549 NSCLC
[4] = test system: ACHN renal
[5] = test system: CAKI-1 renal
[6] = test system: CCRF-CEM leukemia
[7] = test system: COLO 205 colon
[8] = test system: DLD-1 colon
[9] = test system: EKVX NSCLC
[10] = test system: HCT-116 colon
[11] = test system: HCT-15 colon
[12] = test system: HL-60(TB) leukemia
[13] = test system: HOP-18 NSCLC
[14] = test system: HOP-92 NSCLC
[15] = test system: HT29 colon
[16] = test system: IGROV1 ovarian
[17] = test system: K-562 leukemia
[18] = test system: KM12 colon
[19] = test system: KM20L2 colon
[20] = test system: LOX IMVI melanoma
[21] = test system: LXFL 529 NSCLC
[22] = test system: M14 melanoma
[23] = test system: M19-MEL melanoma
[24] = test system: MALME-3M melanoma
[25] = test system: MOLT-4 leukemia
[26] = test system: NCI-H23 lung
[27] = test system: NCI-H460 lung
[28] = test system: NCI-H522 lung
[29] = test system: OVCAR-3 ovarian
[30] = test system: OVCAR-5 ovarian
[31] = test system: OVCAR-8 ovarian
[32] = test system: RPMI-8226 leukemia
[33] = test system: RXF 393 renal
[34] = test system: RXF-631 renal
[35] = test system: SF-268 CNS
[36] = test system: SF-295 CNS
[37] = test system: SF-539 CNS
[38] = test system: SK-MEL-2 melanoma
[39] = test system: SK-MEL-28 melanoma
[40] = test system: SK-MEL-5 melanoma
[41] = test system: SK-OV-3 ovarian
[42] = test system: SN12C renal
[43] = test system: SNB-19 CNS
[44] = test system: SNB-75 CNS
[45] = test system: SNB-78 CNS
[46] = test system: SR leukemia
[47] = test system: SW-620 colon
[48] = test system: TK-10 renal
[49] = test system: U251 CNS
[50] = test system: UACC-62 melanoma
[51] = test system: UO-31 renal
[52] = test system: XF 498 CNS
[53] = test system: DMS 114 small cell lung
[54] = test system: DMS 273 small cell lung
[55] = test system: HCC-2998 colon
[56] = test system: HOP-62 NSCLC
[57] = test system: MCF7 breast
[58] = test system: NCI-H226 lung
[59] = test system: NCI/ADR-RES ovarian
[60] = test system: OVCAR-4 ovarian
[61] = test system: P388 leukemia
[62] = test system: P388/ADR leukemia
[63] = test system: SN12K1 renal
[64] = test system: UACC-257 melanoma

N#Cc1c(N)c(C(=O)O)nn(-c2cccc(C(F)(F)F)c2)c1=O
TGI [1]: > 100 µM
TGI [2]: > 100 µM
TGI [3]: > 100 µM
TGI [4]: > 100 µM
TGI [5]: > 100 µM
TGI [6]: > 100 µM
TGI [7]: > 100 µM
TGI [8]: > 100 µM
TGI [9]: > 100 µM
TGI [10]: > 100 µM
TGI [11]: > 100 µM
TGI [12]: > 100 µM
TGI [13]: > 100 µM
TGI [14]: > 100 µM
TGI [15]: > 100 µM
TGI [16]: > 100 µM
TGI [17]: > 100 µM
TGI [18]: > 100 µM
TGI [19]: > 100 µM
TGI [20]: > 100 µM
TGI [21]: > 100 µM
TGI [22]: > 100 µM
TGI [23]: > 100 µM
TGI [24]: > 100 µM
TGI [25]: > 100 µM
TGI [26]: > 100 µM
TGI [27]: > 100 µM
TGI [28]: > 100 µM
TGI [29]: > 100 µM
TGI [30]: > 100 µM
TGI [31]: > 100 µM
TGI [32]: > 100 µM
TGI [33]: > 100 µM
TGI [34]: > 100 µM
TGI [35]: > 100 µM
TGI [36]: > 100 µM
TGI [37]: > 100 µM
TGI [38]: > 100 µM
TGI [39]: > 100 µM
TGI [40]: > 100 µM
TGI [41]: > 100 µM
TGI [42]: > 100 µM
TGI [43]: > 100 µM
TGI [44]: > 100 µM
TGI [45]: > 100 µM
TGI [46]: > 100 µM
TGI [47]: > 100 µM
TGI [48]: > 100 µM
TGI [49]: > 100 µM
TGI [50]: > 100 µM
TGI [51]: > 100 µM
TGI [52]: > 100 µM

CCOC(=O)C(C)NC(=O)N(C)C12CC3CC(CC(C3)C1)C2 (stereo unspecified)
TGI [2]: 442 µM
TGI [3]: > 500 µM
TGI [5]: > 404 µM
TGI [6]: 430 µM
TGI [7]: > 316 µM
TGI [8]: > 79.3 µM
TGI [53]: 312 µM
TGI [54]: > 500 µM
TGI [9]: > 500 µM
TGI [55]: > 500 µM
TGI [10]: > 500 µM
TGI [11]: 490 µM
TGI [12]: 272 µM
TGI [13]: > 500 µM
TGI [56]: > 422 µM
TGI [14]: 283 µM
TGI [15]: > 500 µM
TGI [16]: > 500 µM
TGI [17]: > 500 µM
TGI [18]: > 281 µM
TGI [19]: > 500 µM
TGI [20]: 323 µM
TGI [23]: > 452 µM
TGI [24]: 497 µM
TGI [57]: 395 µM
TGI [25]: 420 µM
TGI [58]: 489 µM
TGI [26]: 441 µM
TGI [27]: > 442 µM
TGI [28]: > 451 µM
TGI [59]: 424 µM
TGI [29]: > 479 µM
TGI [60]: > 472 µM
TGI [30]: > 500 µM
TGI [31]: > 500 µM
TGI [61]: 231 µM
TGI [62]: > 409 µM
TGI [32]: 422 µM
TGI [33]: > 455 µM
TGI [35]: > 500 µM
TGI [36]: > 500 µM
TGI [37]: > 500 µM
TGI [38]: > 316 µM
TGI [39]: > 500 µM
TGI [40]: 286 µM
TGI [41]: 493 µM
TGI [42]: > 500 µM
TGI [63]: > 500 µM
TGI [43]: > 500 µM
TGI [44]: 227 µM
TGI [45]: > 500 µM
TGI [47]: 494 µM
TGI [49]: > 500 µM
TGI [64]: 406 µM
TGI [50]: > 474 µM
TGI [51]: 492 µM
TGI [52]: 453 µM

COC(=O)C(=O)C(C(=O)C(=O)Nc1cc([N+](=O)[O-])ccc1C#N)c1nc2ccccc2[nH]c1=O (stereo unspecified)
TGI [1]: > 100 µM
TGI [3]: > 100 µM
TGI [4]: > 100 µM
TGI [5]: > 100 µM
TGI [6]: > 100 µM
TGI [7]: > 100 µM
TGI [8]: > 100 µM
TGI [53]: > 100 µM
TGI [54]: > 100 µM
TGI [9]: > 100 µM
TGI [55]: > 100 µM
TGI [10]: > 100 µM
TGI [11]: > 100 µM
TGI [12]: > 100 µM
TGI [13]: > 100 µM
TGI [56]: > 100 µM
TGI [14]: > 100 µM
TGI [15]: > 100 µM
TGI [16]: > 100 µM
TGI [18]: > 100 µM
TGI [19]: > 100 µM
TGI [20]: > 100 µM
TGI [21]: > 100 µM
TGI [22]: > 100 µM
TGI [23]: > 100 µM
TGI [24]: > 100 µM
TGI [25]: > 100 µM
TGI [58]: > 100 µM
TGI [26]: > 100 µM
TGI [27]: > 100 µM
TGI [28]: > 100 µM
TGI [29]: > 100 µM
TGI [60]: > 100 µM
TGI [31]: > 100 µM
TGI [33]: > 100 µM
TGI [34]: > 100 µM
TGI [35]: > 100 µM
TGI [36]: > 100 µM
TGI [37]: > 100 µM
TGI [39]: > 100 µM
TGI [40]: > 100 µM
TGI [41]: > 100 µM
TGI [42]: > 100 µM
TGI [43]: > 100 µM
TGI [44]: > 100 µM
TGI [46]: > 100 µM
TGI [47]: > 100 µM
TGI [48]: > 100 µM
TGI [64]: > 100 µM
TGI [50]: > 100 µM
TGI [51]: > 100 µM
TGI [52]: > 100 µM

— PubChem BioAssay (NCI)
